Source: US10336746B1, “RAD51 inhibitors” (Cyteir Therapeutics, Inc., priority 2017, dated 2019)
Where two headings read alike, the source gives them in different places.

Columns and labels:
[1] = system: WI-38 cells (AID negative); test: Primary screening cell killing assay repeated in WI-38 cells (AID negative); format: cell-based; conditions: Homo sapiens, 168 h, cell death on Day 7, Cell-Titer Glo
Description: Primary screening was a phenotypic screen that utilized the synthetic lethal interaction between AID and RAD51 to identify compounds that were both potent and on target. AID expressing cells are dependent upon RAD51 for survival; inhibiting RAD51 in AID positive cells results in a cytotoxic effect.
Percent cell death and EC50 values were calculated by comparing the cell viability of the compound treated wells to the non-treated wells. Normalized RLU values were obtained by subtracting the media well values from each of the wells in the same column, and then dividing that value by the DMSO treated cells values. The percent kill was then calculated by subtracting the normalized RLU value from 1 and multiplying by 100. The average normalized percent kill value and standard error of the mean was then calculated. The kill values were then inputted into Prism with the corresponding standard errors. In Prism a non-linear regression line was plotted with the data points using a semi-log scale, and the EC50 value was calculated.

[2] = system: Daudi cell line (AID positive); test: Primary screening cell killing assay, Daudi cell line (AID positive); format: cell-based; conditions: Homo sapiens, 168 h, cell death on Day 7, Cell-Titer Glo
Method in brief: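 AID-positive Daudi cells, 1250 per well, were exposed to serially diluted compounds for 7 days at 37° C. Viability read by CellTiter-Glo luminescence; percent cell death and EC50 derived against untreated wells after media-blank subtraction.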

[3] = Bi-directional Caco-2 permeability; format: in vitro ADME; conditions: human; for efflux ratio at 90 min: Caco-2, read-out: BA/AB Ratio; for Papp A→B at 90 min: Caco-2, apical to basolateral, read-out: AB Papp (cm/sec × 10^6); for Papp A→B at 90 min / Papp B→A at 90 min: 37 C, up to 90 minutes; for Papp B→A at 90 min: Caco-2, basolateral to apical, read-out: BA Papp (cm/sec × 10^6)
Description: Bi-directional Caco-2 permeability was assayed. Caco-2 cells were seeded onto permeable polycarbonate supports and allowed to differentiate for about 3 weeks prior to being used in the assays. The cells were then exposed to the compounds from either the apical or basolateral sides and incubated at 37 C for up to 90 minutes under light agitation. Compound transport was then measured using LC/MS/MS analysis at 30, 60, and 90 minutes.

[4] = Caco-2, Caco-2, AB direction, read-out: AB Recovery %
[5] = Caco-2, Caco-2, BA direction, read-out: BA Recovery %

recovery at 90 min [3, 4] [%]	recovery at 90 min [3, 5] [%]	efflux ratio at 90 min [3]	Papp A→B at 90 min [3] [×10⁻⁶ cm/s]	Papp B→A at 90 min [3] [×10⁻⁶ cm/s]	SMILES	EC50 [1] [nM]	EC50 [2] [nM]
59.9	87.2	1.3	1.2	1.5	CC(C)(C)NS(=O)(=O)c1cc(NC(=O)NCc2ccccc2)ccc1-c1cnc([C@H]2CC[C@H](NC(=O)OC(C)(C)C)CC2)s1 [Ex. 10, trans-tert-butyl N-[4-[5-[4-(benzylcarbamoylamino)-2-(tert-butylsulfamoyl)phenyl]thiazol-2-yl]cyclohexyl]carbamate]	> 1000	≤ 100
47.2	81.9	0.8	2.8	2.1	CC(C)OC(=O)Nc1ccc(-c2cnc(C34CCC(NC(=O)OC(C)C)(CC3)CC4)s2)c(S(=O)(=O)NC(C)(C)C)c1 [Ex. 17, isopropyl N-[3-(tert-butylsulfamoyl)-4-[2-[4-(isopropoxycarbonylamino)-1-bicyclo[2.2.2]octanyl]thiazol-5-yl]phenyl]carbamate]	> 1000	100 to 1000
92	107	0.7	0.7	0.5	CC(C)OC(=O)N[C@H]1CC[C@H](c2ncc(-c3ccc(NC(=O)NCc4cccc(F)c4)cc3S(=O)(=O)NC(C)(C)C)s2)CC1 [Ex. 27, isopropyl ((1r,4r)-4-(5-(2-(N-(tert-butyl)sulfamoyl)-4-(3-(3-fluorobenzyl)ureido)phenyl)thiazol-2-yl)cyclohexyl)carbamate]	> 1000	≤ 100
79.8	116	1.4	11.5	15.7	CC(C)OC(=O)N[C@H]1CC[C@H](c2ncc(-c3ccc(NC(=O)N[C@H](C)c4ccccn4)cc3S(=O)(=O)NC(C)(C)C)s2)CC1 [Ex. 30, isopropyl ((1R,4r)-4-(5-(2-(N-(tert-butyl)sulfamoyl)-4-(3-((R)-1-(pyridin-2-yl)ethyl)ureido)phenyl)thiazol-2-yl)cyclohexyl)carbamate]	> 1000	≤ 100
73.3	82.3	1.3	17.9	22.9	CC(C)OC(=O)NC1CCC(c2ncc(-c3ccc(NC(=O)OC4COC4)cc3S(=O)(=O)NC(C)(C)C)s2)CC1 (centres unmarked) [Ex. 38, isopropyl ((1r,4r)-4-(5-(2-(N-(tert-butyl)sulfamoyl)-4-(((oxetan-3-yloxy)carbonyl)amino)phenyl)thiazol-2-yl)cyclohexyl)carbamate]	> 1000	≤ 100
65.3	80.7	1.4	8.7	12.4	CC(C)(C)NS(=O)(=O)c1cc(NC(=O)NCc2ccccc2)ccc1-c1cnc([C@H]2CC[C@H](NC(=O)OC3COC3)CC2)s1 [Ex. 47, trans-oxetan-3-yl N-[4-[5-[4-(benzylcarbamoylamino)-2-(tert-butylsulfamoyl)phenyl]thiazol-2-yl]cyclohexyl]carbamate]	> 1000	≤ 100
80.1	90.3	0.7	23.1	16	CC(C)OC(=O)Nc1ccc(-c2cnc(C3CCC(NC(=O)OC4COC4)CC3)s2)c(S(=O)(=O)NC(C)(C)C)c1 (centres unmarked) [Ex. 48, oxetan-3-yl ((1r,4r)-4-(5-(2-(N-(tert-butyl)sulfamoyl)-4-((isopropoxycarbonyl)amino)phenyl)thiazol-2-yl)cyclohexyl)carbamate]	> 1000	100 to 1000
					CC(C)(C)NS(=O)(=O)c1cc(NC(=O)OC2COC2)ccc1-c1cnc([C@H]2CC[C@H](NC(=O)OC3COC3)CC2)s1 [Ex. 49, trans-oxetan-3-yl N-[3-(tert-butylsulfamoyl)-4-[2-[4-(oxetan-3-yloxycarbonylamino)cyclohexyl]thiazol-5-yl]phenyl]carbamate]	> 1000	100 to 1000
87.7	98.1	14.6	2	29.1	CC(C)(C)NS(=O)(=O)c1cc(NC(=O)NCc2ccccn2)ccc1-c1cnc(C2CCC(NC(=O)OC3COC3)CC2)s1 (centres unmarked) [Ex. 50, oxetan-3-yl ((1r,4r)-4-(5-(2-(N-(tert-butyl)sulfamoyl)-4-(3-(pyridin-2-ylmethyl)ureido)phenyl)thiazol-2-yl)cyclohexyl)carbamate]	> 1000	≤ 100
65	85.7	1.1	9.9	10.5	C[C@H](NC(=O)Nc1ccc(-c2cnc(C3CCC(NC(=O)OC4COC4)CC3)s2)c(S(=O)(=O)NC(C)(C)C)c1)c1ccccc1 (stereo partly drawn) [Ex. 51, oxetan-3-yl ((1S,4r)-4-(5-(2-(N-(tert-butyl)sulfamoyl)-4-(3-((S)-1-phenylethyl)ureido)phenyl)thiazol-2-yl)cyclohexyl)carbamate]	> 1000	≤ 100
					C[C@@H](NC(=O)Nc1ccc(-c2cnc(C3CCC(NC(=O)OC4COC4)CC3)s2)c(S(=O)(=O)NC(C)(C)C)c1)c1ccccc1F (stereo partly drawn) [Ex. 54, oxetan-3-yl ((1R,4r)-4-(5-(2-(N-(tert-butyl)sulfamoyl)-4-(3-((R)-1-(2-fluorophenyl)ethyl)ureido)phenyl)thiazol-2-yl)cyclohexyl)carbamate]	> 1000	≤ 100
					CC(C)NC(=O)OC12CCC(c3ncc(-c4ccc(NC(=O)NCc5ccccc5)cc4S(=O)(=O)NC(C)(C)C)s3)(CC1)CC2 [Ex. 61, [1-[5-[4-(benzylcarbamoylamino)-2-(tert-butylsulfamoyl)phenyl]thiazol-2-yl]-4-bicyclo[2.2.2]octanyl]N-isopropylcarbamate]	> 1000	> 1000
					CC(C)NC(=O)OC12CCC(c3ncc(-c4ccc(NC(=O)NCc5ccccn5)cc4S(=O)(=O)NC(C)(C)C)s3)(CC1)CC2 [Ex. 62, 4-(5-(2-(N-(tert-butyl)sulfamoyl)-4-(3-(pyridin-2-ylmethyl)ureido)phenyl)thiazol-2-yl)bicyclo[2.2.2]octan-1-yl isopropylcarbamate]	> 1000	> 1000
					CC(C)OC(=O)Nc1ccc(-c2cnc(C3CC(NC(=O)OC(C)C)C3)s2)c(S(=O)(=O)NC(C)(C)C)c1 (centres unmarked) [Ex. 65, isopropyl N-[3-(tert-butylsulfamoyl)-4-[2-[3-(isopropoxycarbonylamino)cyclobutyl]thiazol-5-yl]phenyl]carbamate]	> 1000	100 to 1000
					CC(C)OC(=O)N[C@H]1CC[C@H](c2ncc(-c3ccc(NC(=O)OCc4ccccc4F)cc3S(=O)(=O)NC(C)(C)C)s2)CC1 [Ex. 70, trans-isopropyl N-[4-[5-[2-(tert-butylsulfamoyl)-4-[(2-fluorophenyl)methoxycarbonylamino]phenyl]thiazol-2-yl]cyclohexyl]carbamate]	> 1000	≤ 100
					CC(C)OC(=O)N[C@H]1CC[C@H](c2ncc(-c3ccc(NC(=O)O[C@@H](C)c4ccccc4)cc3S(=O)(=O)NC(C)(C)C)s2)CC1 [Ex. 71, trans-[(1S)-1-phenylethyl] N-[3-(tert-butylsulfamoyl)-4-[2-[4-(isopropoxycarbonylamino)cyclohexyl]thiazol-5-yl]phenyl]carbamate]	> 1000	≤ 100
					CC(C)OC(=O)N[C@H]1CC[C@H](c2ncc(-c3ccc(NC(=O)OCc4ccccn4)cc3S(=O)(=O)NC(C)(C)C)s2)CC1 [Ex. 72, trans-2-pyridylmethyl N-[3-(tert-butylsulfamoyl)-4-[2-[4-(isopropoxycarbonylamino)cyclohexyl]thiazol-5-yl]phenyl]carbamate]	> 1000	≤ 100
					CC(C)OC(=O)N[C@H]1CC[C@H](c2ncc(-c3ccc(NC(=O)NCc4ccc(O)cc4)cc3S(=O)(=O)NC(C)(C)C)s2)CC1 [Ex. 73, trans-isopropyl N-[4-[5-[2-(tert-butylsulfamoyl)-4-[(4-hydroxyphenyl)methylcarbamoylamino]phenyl]thiazol-2-yl]cyclohexyl]carbamate]	> 1000	≤ 100
					CC(C)OC(=O)N[C@H]1CC[C@H](c2ncc(-c3ccc(NC(=O)NCc4ccccc4)cc3S(=O)(=O)NC(C)(C)CO)s2)CC1 [Ex. 74, trans-isopropyl N-[4-[5-[4-(benzylcarbamoylamino)-2-[(2-hydroxy-1,1-dimethyl-ethyl)sulfamoyl]phenyl]thiazol-2-yl]cyclohexyl]carbamate]	> 1000	≤ 100
